Data from PubChem BioAssay (NCI).
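GI50: concentration for 50% inhibition of growth. TGI: concentration producing complete growth inhibition.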

Columns and labels:
Assay in all cases: NCI tumour cell line growth inhibition, 384-well format
HCC-2998 colon = system: HCC-2998 colon
BT-549 breast = system: BT-549 breast
HOP-92 NSCLC = system: HOP-92 NSCLC
OVCAR-8 ovarian = system: OVCAR-8 ovarian
OVCAR-4 ovarian = system: OVCAR-4 ovarian
786-0 renal = system: 786-0 renal
MDA-MB-468 breast = system: MDA-MB-468 breast
MOLT-4 leukemia = system: MOLT-4 leukemia
CAKI-1 renal = system: CAKI-1 renal
IGROV1 ovarian = system: IGROV1 ovarian
OVCAR-5 ovarian = system: OVCAR-5 ovarian
NCI-H322M lung = system: NCI-H322M lung
PC-3 prostate = system: PC-3 prostate
A498 renal = system: A498 renal
EKVX NSCLC = system: EKVX NSCLC
SK-MEL-28 melanoma = system: SK-MEL-28 melanoma
SK-OV-3 ovarian = system: SK-OV-3 ovarian
KM12 colon = system: KM12 colon
SR leukemia = system: SR leukemia
UACC-257 melanoma = system: UACC-257 melanoma
HCT-15 colon = system: HCT-15 colon
NCI-H460 NSCLC = system: NCI-H460 NSCLC
K-562 leukemia = system: K-562 leukemia
HS 578T breast = system: HS 578T breast
SNB-75 CNS = system: SNB-75 CNS
T-47D breast = system: T-47D breast
MCF7 breast = system: MCF7 breast
UO-31 renal = system: UO-31 renal
HL-60(TB) leukemia = system: HL-60(TB) leukemia

## Cn1ncc(-c2ccc3c(=O)[nH]nc(CN)c3c2)c1-c1c(F)cc2ccccc2c1C#N
HCC-2998 colon
  GI50: 3.08 µM
  TGI: 14 µM
BT-549 breast
  GI50: 2900 nM
  TGI: 11 µM
HOP-92 NSCLC
  GI50: 1180 nM
  TGI: 6.91 µM
OVCAR-8 ovarian
  GI50: 2590 nM
  TGI: 15.2 µM
OVCAR-4 ovarian
  GI50: 1300 nM
  TGI: 7.5 µM
786-0 renal
  GI50: 2130 nM
  TGI: 12.6 µM
MDA-MB-468 breast
  GI50: 1310 nM
  TGI: 3.44 µM
MOLT-4 leukemia
  GI50: 29.8 nM
  TGI: 101 nM
CAKI-1 renal
  GI50: 3.23 µM
  TGI: 13.9 µM
IGROV1 ovarian
  GI50: 3.42 µM
  TGI: 14 µM
OVCAR-5 ovarian
  GI50: 4.58 µM
  TGI: 17.1 µM
NCI-H322M lung
  GI50: 4.74 µM
  TGI: 18.3 µM
PC-3 prostate
  GI50: 3.96 µM
  TGI: 14.7 µM
A498 renal
  GI50: 2220 nM
  TGI: 11 µM
EKVX NSCLC
  GI50: 5.14 µM
  TGI: 18.7 µM
SK-MEL-28 melanoma
  GI50: 3.09 µM
  TGI: 12.6 µM
SK-OV-3 ovarian
  GI50: 4.57 µM
  TGI: 16.6 µM
KM12 colon
  GI50: 2630 nM
  TGI: 11.3 µM
SR leukemia
  GI50: 37.4 nM
  TGI: 313 nM
UACC-257 melanoma
  GI50: 2640 nM
  TGI: 8.43 µM
HCT-15 colon
  GI50: 2280 nM
  TGI: 10.8 µM
NCI-H460 NSCLC
  GI50: 1270 nM
  TGI: 11.5 µM
K-562 leukemia
  GI50: 2110 nM
  TGI: 8.63 µM
HS 578T breast
  GI50: 1760 nM
  TGI: 4.22 µM
SNB-75 CNS
  GI50: 2550 nM
  TGI: 10.3 µM
T-47D breast
  GI50: 1080 nM
  TGI: 6.19 µM
MCF7 breast
  GI50: 1110 nM
  TGI: 9.34 µM
UO-31 renal
  GI50: 6.43 µM
  TGI: 19.6 µM
HL-60(TB) leukemia
  GI50: 1720 nM
